# From paper PMC11085308, “Design, Synthesis and Biological Activity of Novel Methoxy- and Hydroxy-Substituted N-Benzimidazole-Derived Carboxamides” (Molecules, 2024)
# Read-outs that look alike come from different tables or passages of the source.
# Legend:
# E. coli efflux del. = assay: microbe, parasite or virus in culture; type: cell-based, Escherichia coli; details: broth microdilution, 16–24 h at 37 °C; unit inferred
# Protocol: (§1) The in vitro antibacterial activity of the synthesized benzamides 7–12 and 31–37 was evaluated against a panel of eight different bacterial strains. The Gram-positive bacterial strains comprised S. aureus, S. pneumoniae and E. faecalis, and the panel of Gram-negative bacteria consisted of E. coli, K. pneumoniae, A. baumannii and P. aeruginosa.
# (§2) The selected bacterial strains were Gram-negative Escherichia coli (ATCC 25922) and Gram-positive Staphylococcus aureus (ATCC 29213) and S. Pneumoniae (ATCC 49619). The Saccharomyces cerevisiae ATCC 7752 strain was tested as a eukaryotic model organism. Synthesized compounds were prepared as 10 mM DMSO solutions and tested in a final concentration range of 100–0.2 µM [39].
# (§3) Broth microdilution testing was performed according to CLSI (Clinical Laboratory Standards Institute) guidelines. The MIC (minimal inhibitory concentration) value was defined as the last tested concentration of a compound at which there is no visible growth of bacteria. Inoculums for each microorganism were prepared using the direct colony suspension method, where broth solutions that achieved turbidity equivalent to 0.5 McFarland standards were additionally diluted 100× with cation-adjusted MH media (Becton Dickinson). All test plates were incubated for 16–24 h at 37 °C.
# [1] = test system: HCT 116 (colorectal carcinoma); assay: Antiproliferative activity in vitro, MTT assay, 72 h; type: cell-based; details: Homo sapiens, 72 h incubation, '-' with footnote a = did not show biological activity due to precipitation
# Protocol: (§4) The experiments were carried out on four human cell lines which are derived from three cancer types: H460 (lung carcinoma), HCT 116 (colorectal carcinoma), MCF-7 (human breast cancer) and the non-cancerous cell line HEK 293 (human embryonic kidney).
# (§5) The results are compared with the known antiproliferative agents doxorubicin and etoposide. […] Therefore, it is not clear whether the observed antiproliferative activity is due to the biological activity of the compounds or to precipitation.
# (§6) The experiments were performed on four human cell lines, including HCT 116 (colon carcinoma), H 460 (lung carcinoma), MCF-7 (breast carcinoma) and HEK 293 (human embryonic kidney cells), in line with previously published experimental procedures. Briefly, the cells were grown in DMEM medium with the addition of 10% fetal bovine serum (FBS), 2 mM of L-glutamine, 100 U/mL of penicillin and 100 µg/mL of streptomycin and cultured as monolayers at 37 °C in a humidified atmosphere with 5% CO2. Cells were seeded at 2 × 10^3 cells/well in standard 96-well microtiter plates and left to attach for 24 h. The next day, a test compound was added in five serial 10-fold dilutions. The rate of cell growth was evaluated after 72 h of incubation with MTT assays. […] Each test was performed in quadruplicate in at least two individual experiments.
# H460 (lung carcinoma) = assay: as above; type: cell-based; details: Homo sapiens, NCI-H460, 72 h incubation
# Protocol: as §4, §5, §6
# [2] = test system: MCF-7 (human breast cancer); assay: as above; type: cell-based; details: MCF7, 72 h incubation
# Protocol: as §4, §5, §6
# S. aureus ATCC 29213 = assay: Antibacterial activity in vitro, broth microdilution MIC; type: cell-based, Staphylococcus aureus; details: for MIC S. aureus ATCC 29213: broth microdilution, 16–24 h at 37 °C, unit inferred
# Protocol: as §1, §2, §3
# E. coli ATCC 25922 = assay: as above; type: cell-based, Escherichia coli; details: 16–24 h at 37 °C, unit inferred
# Protocol: as §1, §2, §3
# A. baumannii ATCC 17978 = assay: as above; type: cell-based; details: 16–24 h at 37 °C, unit inferred
# Protocol: as §1, §2, §3
# P. aeruginosa ATCC 27853 = assay: as above; type: cell-based; details: 16–24 h at 37 °C, unit inferred
# Protocol: as §1, §2, §3
# E. faecalis ATCC 29212 = assay: as above; type: cell-based; details: for Selectivity of antibacterial activity, in words: against the Gram-positive strain E. faecalis; for MIC E. faecalis ATCC 29212: broth microdilution, 16–24 h at 37 °C, unit inferred
# Protocol: as §1, §2, §3
# [3] = Ferric reducing/antioxidant power (FRAP assay); design: FRAP: unit not given here; details: for FRAP: Fe2+ equivalents, triplicate
# Protocol: (§7) The synthesized benzazole acrylonitrile derivatives were screened for their antioxidative potency by using in vitro assays, namely DPPH and ABTS as free radical scavenging assays and FRAP as a ferric reducing/antioxidant power assay.
# The antioxidant activity of a substance is directly related to its reducing power.
# The FRAP method was carried out according to previously described procedures with some modifications to make it compatible with an assay on a 96-well microplate. All results were expressed as Fe^2+ equivalents (Fe^2+ µmol). Ferrous sulphate (FeSO4 × 7H2O) was used to develop a standard curve of 20–2000 µmol/l for the FRAP test.
# [4] = Solubility in water, seen as precipitation during incubation; type: physicochemical; details: precipitation observed during the incubation period
# Excerpt: Therefore, it is not clear whether the observed antiproliferative activity is due to the biological activity of the compounds or to precipitation.
# [5] = test system: H460, HCT 116, MCF-7, HEK 293; assay: Antiproliferative activity in vitro, MTT assay, range over the tested cell lines; type: cell-based, human; details: read-out: IC50 range against the tested cell lines
# Protocol: as §4, §5, §6
# HCT 116 cells = assay: Antioxidative activity assay in cells (ROS level, DCFH-DA fluorescence); type: cell-based, human; details: HCT 116, TBHP 100 µM plus 10 µM compound, 1 h, compared to NAC
# Excerpt: We further selected compounds 9, 10, 32 and 36, showing quite pronounced antioxidant capacity in the DPPH and FRAP assays, in order to test their pro- and antioxidant activity in tumor cells. In order to test the antioxidant activity of the selected compounds in tumor cells (Figure 2), we treated HCT 116 cells with tert-butyl hydroperoxide (TBHP), a substance commonly used for inducing oxidative stress in cells and tissues, alone or in combination with a known antioxidative agent, N-acetyl-L-cysteine (NAC), or the tested compounds. We measured the formation of oxidative stress byproducts using 2′,7′-dichlorodihydrofluorescein diacetate (DCFH-DA).
# For the antioxidative activity assay, 2.5 × 10^4 cells were seeded into 96-well microtiter plates and left to attach for 24 h. The next day, cells were washed with PBS and incubated in FBS-free DMEM medium with 25 µM of DCFH-DA fluorescence dye. After 45 min of incubation, the medium was discarded, and the cells were washed with PBS.
# After the washing step, the cells were incubated with 100 µM of tert-butyl hydroperoxide (TBHP) alone or in combination with antioxidative agents (50 mM of N-Acetyl-L-cysteine-NAC or 10 µM of the tested compounds) in PBS for 1 h at 37 °C. DCFH-DA fluorescence was recorded on a microplate fluorimeter reader (Tecan) with an excitation beam of 485 nm, while the emitted fluorescence was collected at 535 nm. All tests were presented as the means of two independent measurements carried out in triplicate. One-way ANOVA with Tukey’s post hoc test was used for statistical analysis: *—p < 0.05; **—p < 0.01; ***—p < 0.001.
# Figure 2 Antioxidative activity of selected systems. HCT 116 cells were treated with a combination of H2O2 (4 mM) and N-acetyl-L-cysteine (NAC, 10 mM) or the tested compounds (10 mM). Treatment with H2O2 (4 mM) alone was used as a control for ROS induction. The level of reactive oxygen species (ROS) was measured with the fluorescent dye DCFH-DA using a fluorimeter. The data presented here are the results of three independent measurements carried out in triplicate. A one-way ANOVA with Tukey’s post hoc test was used for statistical analysis, *** p < 0.001; ns—not significant.
# [6] = test system: HEK 293 (human embryonic kidney); assay: Antiproliferative activity in vitro, MTT assay, 72 h, non-cancerous cell line; type: cell-based; details: HEK293, 72 h incubation, '-' with footnote a = did not show biological activity due to precipitation
# Protocol: as §4, §5, §6
# [7] = DPPH free radical scavenging assay; details: compared to the standard BHT
# Excerpt: as §7
# The well-known antioxidant butylated hydroxytoluene (BHT) was used as a standard for comparing activity during testing. The DPPH assay is a standard commonly used test for the in vitro assessment of the antioxidant capacity of novel compounds by using their ability to scavenge the stable radical 1,1-diphenyl-picrylhydrazyl. […] Another test used to evaluate the antioxidative capacity of novel compounds was the ABTS test, by which their activity was evaluated by scavenging the stable radical 3-ethylbenzthiazoline-6-sulphonic acid.
# Determination of the reducing activity of the stable radical 1,1-diphenyl-picrylhydrazyl (DPPH):
# The reducing activity of the investigated systems was measured by the DPPH method according to previously described procedures with modifications to ensure their use on a 96-well microplate. Briefly, equal volumes of various concentrations of the tested molecules (dissolved in DMSO) were added to a solution of DPPH (final concentration of 50 µM in absolute ethanol). Ethanol and DMSO were used as control solutions in line with earlier reports. The radical scavenging activity was calculated using the following formula:[(A517 control − A517 compound)/A517 control] × 100.
# The IC50 values were calculated from dose–response curves using nonlinear regression analysis with the GraphPad Prism 8 Ink. program. All measurements were carried out in triplicate.
SMILES,MIC E. coli efflux del. (E. coli efflux del.) [µM],IC50 [1] [µM],IC50 (H460 (lung carcinoma)) [µM],IC50 [2] [µM],MIC S. aureus ATCC 29213 (S. aureus ATCC 29213) [µM],MIC E. coli ATCC 25922 (E. coli ATCC 25922) [µM],MIC A. baumannii ATCC 17978 (A. baumannii ATCC 17978) [µM],MIC P. aeruginosa ATCC 27853 (P. aeruginosa ATCC 27853) [µM],"Selectivity of antibacterial activity, in words (E. faecalis ATCC 29212)",MIC E. faecalis ATCC 29212 (E. faecalis ATCC 29212) [µM],FRAP [3],Solubility in water [4],IC50 ([5]; Homo sapiens) [µM],IC50 [5] [µM],Level of ROS in cells under induced oxidative stress (HCT 116 cells),IC50 [6] [µM],"MIC (S. aureus ATCC 29213; Staphylococcus aureus, ATCC29213, read-out: MIC S. aureus) [µM]",melting point [°C],"FRAP ferric reducing/antioxidant power, in words ([3]; compared to the standard BHT)","DPPH free radical scavenging activity, in words [7]"
"COc1ccc(C(=O)Nc2nc3ccccc3[nH]2)c(O)c1 [Compound 7, N-(1H-benzo[d]imidazol-2-yl)-2-hydroxy-4-methoxybenzamide]",> 64,26.4 ± 4.8,> 100,36.3 ± 1.8,> 64,> 64,> 64,> 64,selective antibacterial activity,16,387.28 ± 7.56,low solubility in water,–,–,–,–,–,–,–,–
"COc1ccc(C(=O)Nc2nc3cc(C#N)ccc3n2CC(C)C)c(O)c1 [Compound 10, N-(5-cyano-1-isobutyl-1H-benzo[d]imidazol-2-yl)-2-hydroxy-4-methoxybenzamide]",> 64,3.9 ± 0.4,4.4 ± 0.4,2.2 ± 0.9,> 64,> 64,> 64,> 64,–,> 64,123.61 ± 2.52,–,2.2 to 4.4,1.2 to 5.3,did not effectively scavenge ROS,4.4 ± 0.3,–,–,–,–
"Cn1c(NC(=O)c2cc(O)c(O)c(O)c2)nc2cc(C#N)ccc21 [Compound 36, N-(5-cyano-1-methyl-1H-benzo[d]imidazol-2-yl)-3,4,5-trihydroxybenzamide]",> 64,19.3 ± 6.4,48.3 ± 10.5,4.8 ± 0.7,32,> 64,> 64,> 64,–,64,2396.01 ± 35.27,–,–,–,reducing the level of ROS in the cells,25.3 ± 0.7,32,245 to 251,excellent in vitro antioxidant activity,significantly improved
"COc1ccc(C(=O)Nc2nc3cc(C#N)ccc3n2C)c(O)c1 [Compound 12, N-(5-cyano-1-methyl-1H-benzo[d]imidazol-2-yl)-2-hydroxy-4-methoxybenzamide]",> 64,–,> 100,3.1,> 64,> 64,> 64,> 64,selective antibacterial activity,32,592.86 ± 13.86,low solubility in water,–,–,–,–,–,–,–,–
"Cn1c(NC(=O)c2ccccc2O)nc2cc(C#N)ccc21 [Compound 11, N-(5-cyano-1-methyl-1H-benzo[d]imidazol-2-yl)-2-hydroxybenzamide]",> 64,3.7 ± 0.04,> 100,1.2 ± 0.3,> 64,> 64,> 64,> 64,selective antibacterial activity,32,422.55 ± 8.82,–,1.2 to 5.3,–,–,5.3 ± 0.6,–,–,–,–
